The source of these data is US20210317102A1, “INHIBITORS OF INTEGRATED STRESS RESPONSE PATHWAY” (Praxis Biotech LLC, priority 2019, published 2021).

Each structure is given as a SMILES string.

Assay [1] concerns ATF4 expression, HEK293T cells carrying the ATF4 luciferase reporter. Nature of the assay: ATF4 expression inhibition assay (ATF4 luciferase reporter). It counts as cell-based. The following applies: Homo sapiens, HEK-293T, 100 nM thapsigargin, 3 hours. As for the experimental part:
The ATF4 reporter was prepared by fusing the human full length 5′UTR of ATF4 (NCBI Accession No. BC022088.2) upstream of the firefly luciferase coding sequence lacking the initiator methionine. The fused sequence was cloned into pLenti-EFla-C-Myc-DDK-IRES-Puro cloning vector (Origen #PS100085) using standard methods. Virus production was carried out by using Lenti-X™ Packaging Single Shots Protocol (Clonetech #631276). Viral particles were used to transduce HEK293T cells (ATCC #CRL-3216, ATCC Manassas, Va.), which were subsequently selected with puromycin to generate stable cell line. Cells were maintained at 37° C. and 5% CO2 in DMEM-F12 (Hyclone #SH30023.02) supplemented with 10% heat-inactivated fetal bovine serum (Gibco #16000-044), 2 mM L-glutamine (Gibco #25030-081), 100 U/ml penicillin, and 100 μg/ml streptomycin (Gibco #^15140-122).
HEK293T cells carrying the ATF4 luciferase reporter were plated on 96-well plates (Nunc) at 10,000 cells per well. Cells were treated two days after seeding with 100 nM thapsigargin (Tg) (Sigma-Aldrich #T9033) in the presence of different concentrations of selected compounds ranging from 1 nM to 10 μM. Cells without treatment or cells treated with Tg alone were used as controls. Assay plates containing cells were incubated for 3 hours at 37° C.
Luciferase reactions were performed using Luciferase Assay System (Promega #E1501) as specified by the manufacturer. Luminescence was read with an integration time of 1 s and a gain of 110 using a Cytation-5 multi-mode microplate reader (BioTek). Relative luminescence units were normalized to Tg treatment (0% inhibition) and untreated cells (100% inhibition) and the percentage of ATF4 inhibition was calculated.
Accordingly, inhibition of ATF4 expression as a result of the test compound indicates suppression of the ISR pathway.

The subject of assay [2] is Chinese hamster ovary (CHO) cells. The assay is described as follows: Protein synthesis assay (puromycin incorporation, western blot). The following applies: 2 hours, media alone = 100%; for activity at 1 µM: Cricetulus griseus, unstressed CHO cells (without Tg), 1 μM test compound, read-out: % Protein synthesis relative to untreated (1 μM test compound); for % Recovery of protein synthesis (1 μM test compound): stressed CHO cells, 300 nM Tg plus 1 μM test compound, Tg alone = 0%. The class given is cell-based. As for the experimental part:
Chinese hamster ovary (CHO) cells were maintained at 37° C. and 5% CO2 in Dulbecco's Modified Eagle's Media (DMEM) supplemented with 10% fetal bovine serum, 2 mM L-glutamine, 100 U/ml penicillin, and 100 μg/ml streptomycin. After reaching 80% of confluence, cells were detached and seeded on 6 well plates in complete media, allowed to recover overnight and treated for 2 hours with 1 μM of the test compound (to assess protein synthesis levels in unstressed condition), or for 2 hours with 300 nM Tg in the presence of 1 μM of the test compound (to assess the recovery of protein synthesis in a stressed condition). Cells with Tg alone were used as controls.
After the 2 hours treatments, media were replaced by adding 10 μg/ml puromycin (Sigma Aldrich #P8833) in complete media for 30 min. Media were removed and cells were lysed with SDS-PAGE lysis buffer. Lysates were transferred to 1.5 ml tubes and sonicated for 3 min and total protein amount were quantified using BCA Protein Assay Kit (Pierce). Equal amount of protein (30 μg) was loaded on SDS-PAGE gels. Proteins were transferred onto […] PVDF membranes (BioRad) and probed with primary antibodies diluted in Tris-buffered saline supplemented with 0.1% Tween 20 (Merck #S6996184 505) and 3% bovine serum albumin (Rockland #BSA-50).
Puromycin (12D10) (Merck #MABE343) and j-actin (Sigma Aldrich #A5441) antibodies were used as primary antibody. A HRP-conjugated secondary antibody (Rockland) was employed to detect immune-reactive bands using enhanced chemiluminescence (ECL Western Blotting Substrate, Pierce). Quantification of protein bands was done by densitometry using ImageJ software.
Percent increase of protein synthesis in unstressed cells (without Tg treatment) in the presence of media alone or certain test compounds is shown in Table 3. The percentage levels were normalized to the media alone condition, which correspond to 100% protein synthesis.
Percent recovery of protein synthesis in stressed cells (with Tg treatment) due to the test compounds at 1 μM is also shown in Table 3. The levels were normalized to the media alone and Tg alone conditions, which correspond to 100% and 0% respectively.
(In western blotting, separated proteins are transferred to a membrane and probed.)

One may read the IC50 as the midpoint of a concentration-inhibition curve. Read a low IC50 as greater potency. Consider `O=C(COc1ccc(Cl)c(F)c1)N[C@H]1CC[C@H](CNC(=O)c2ccc(C(F)(F)F)cn2)CC1` [Compound 20, trans-N-((4-(2-(4-chloro-3-fluorophenoxy)acetamido)cyclohexyl)methyl)-5-(trifluoromethyl)picolinamide], for which the IC50 in assay [1] came out at 2.43 nM. For the same compound, in assay [2], the activity at 1 µM is 75.6% and the “% Recovery of protein synthesis (1 μM test compound)” value (shortened to “% Recovery of protein synthesis”) is listed as 34.8%.

In assay [1], `O=C(COc1ccc(Cl)c(F)c1)N[C@H]1CC[C@H](CNC(=O)c2cnc(C(F)F)cn2)CC1` [Compound 21, trans-N-((4-(2-(4-chloro-3-fluorophenoxy)acetamido)cyclohexyl)methyl)-5-(difluoromethyl)pyrazine-2-carboxamide] came in with an IC50 of 17.8 nM. Besides, in assay [2], the activity at 1 µM is 67.8% and the “% Recovery of protein synthesis” value was determined as 11.4%.

As to `O=C(COc1ccc(Cl)c(F)c1)N[C@H]1CC[C@H](CNC(=O)c2cccc(Cl)c2)CC1` [Compound 22, trans-3-chloro-N-((4-(2-(4-chloro-3-fluorophenoxy)acetamido)cyclohexyl)methyl)benzamide], in assay [1], the IC50 was 10.9 nM. In addition, in assay [2], the activity at 1 µM was 83.3% and the “% Recovery of protein synthesis” value amounted to 54.6%.

Compound `O=C(COc1ccc(Cl)c(F)c1)N[C@H]1CC[C@H](CNC(=O)c2ccc(Cl)c(F)c2)CC1` [Compound 23, trans-4-chloro-N-((4-(2-(4-chloro-3-fluorophenoxy)acetamido)cyclohexyl)methyl)-3-fluorobenzamide] registered an IC50 in assay [1] of 1.27 nM. In addition, in assay [2], the activity at 1 µM is 93% and the “% Recovery of protein synthesis” value was determined as 74.1%.

`O=C(COc1ccc(Cl)c(F)c1)N[C@H]1CC[C@H](CNC(=O)c2ccc3ccc(Cl)cc3n2)CC1` [Compound 24, trans-7-chloro-N-((4-(2-(4-chloro-3-fluorophenoxy)acetamido)cyclohexyl)methyl)quinoline-2-carboxamide]: the IC50 in assay [1] was > 1000 nM. Besides, in assay [2], the activity at 1 µM is 138% and the “% Recovery of protein synthesis” value is listed as 49.1%.

`O=C(N[C@H]1CC[C@H](CNC(=O)c2cc3cc(Cl)ccc3o2)CC1)c1ccc2cc(Cl)ccc2n1` [Compound 25, trans-6-chloro-N-(4-((5-chlorobenzofuran-2-carboxamido)methyl)cyclohexyl)quinoline-2-carboxamide] returned an IC50 in assay [1] of 1.56 nM. For the same compound, in assay [2], the activity at 1 µM came to 266% and the “% Recovery of protein synthesis” value is recorded as 223.3%.

For `O=C(NC[C@H]1CC[C@H](NC(=O)c2cc3cc(Cl)ccc3o2)CC1)c1cc2cc(Cl)ccc2o1` [Compound 26, trans-5-chloro-N-((4-(5-chlorobenzofuran-2-carboxamido)cyclohexyl)methyl)benzofuran-2-carboxamide], in assay [1], the IC50 is 0.6 nM. For the same compound, in assay [2], the activity at 1 µM is 173% and the “% Recovery of protein synthesis” value amounted to 113.4%.

Regarding `O=C(NC[C@H]1CC[C@H](NCCOc2ccc(Cl)c(F)c2)CC1)c1cc2cc(Cl)ccc2o1` [Compound 27, trans-5-chloro-N-((4-((2-(4-chloro-3-fluorophenoxy)ethyl)amino)cyclohexyl)methyl)benzofuran-2-carboxamide], the IC50 in assay [1] is < 1000 nM. For the same compound, in assay [2], the activity at 1 µM came to 126% and the “% Recovery of protein synthesis” value is 38.1%.

Compound `O=C(NC[C@H]1CC[C@H](NC(=O)COc2ccc(Cl)c(F)c2)CC1)Nc1ccc(Cl)cc1` [Compound 28, trans-2-(4-chloro-3-fluorophenoxy)-N-(4-((3-(4-chlorophenyl)ureido)methyl)cyclohexyl)acetamide] displayed an IC50 in assay [1] of 3.1 nM. Also, in assay [2], the activity at 1 µM was determined as 68% and the “% Recovery of protein synthesis” value is 28.6%.

In turn, `O=C(Cc1ccc(Cl)cc1)NC[C@H]1CC[C@H](NC(=O)COc2ccc(Cl)c(F)c2)CC1` [Compound 29, trans-2-(4-chloro-3-fluorophenoxy)-N-(4-((2-(4-chlorophenyl)acetamido)methyl)cyclohexyl)acetamide] came in with a half-maximal inhibitory concentration (IC50) in assay [1] of 12.5 nM. For the same compound, in assay [2], the activity at 1 µM was determined as 70.9% and the “% Recovery of protein synthesis” value was 1.3%.

`O=C(COc1cccc(Cl)c1)NC[C@H]1CC[C@H](NC(=O)COc2ccc(Cl)c(F)c2)CC1` [Compound 30, trans-2-(4-chloro-3-fluorophenoxy)-N-(4-((2-(3-chlorophenoxy)acetamido)methyl)cyclohexyl)acetamide]: the IC50 in assay [1] was < 1000 nM. Further, in assay [2], the activity at 1 µM came to 110% and the “% Recovery of protein synthesis” value came to 0.4%.

As for `CC(C)(C(=O)NC[C@H]1CC[C@H](NC(=O)COc2ccc(Cl)cc2)CC1)c1ccc(Cl)cc1` [Compound 31, trans-N-((4-(2-(4-chlorophenoxy)acetamido)cyclohexyl)methyl)-2-(4-chlorophenyl)-2-methylpropanamide], in assay [1], the IC50 was < 1000 nM. Besides, in assay [2], the activity at 1 µM was found to be 120% and the “% Recovery of protein synthesis” value stood at 66.2%.

Turning to `CC(C)(C(=O)NC[C@H]1CC[C@H](NC(=O)COc2ccc(Cl)c(F)c2)CC1)c1ccc(Cl)cc1` [Compound 32, trans-N-((4-(2-(4-chloro-3-fluorophenoxy)acetamido)cyclohexyl)methyl)-2-(4-chlorophenyl)-2-methylpropanamide], in assay [1], the IC50 was > 1000 nM. Besides, in assay [2], the activity at 1 µM was determined as 162% and the “% Recovery of protein synthesis” value is 69.7%.

Consider `O=C(COc1ccc(Cl)cc1)N[C@H]1CC[C@H](CNC2CCc3cc(Cl)ccc3C2)CC1` (stereo partly drawn) [Compound 33, trans-N-(4-(((6-chloro-1,2,3,4-tetrahydronaphthalen-2-yl)amino)methyl)cyclohexyl)-2-(4-chlorophenoxy)acetamide], for which the IC50 in assay [1] is > 1000 nM. Moreover, the activity at 1 µM in assay [2] amounted to 599%.

In the case of `O=C(COc1ccc(Cl)cc1)N[C@H]1CC[C@H](NC(=O)C2COc3ccc(Cl)cc3N2)CC1` (stereo partly drawn) [Compound 34, trans-6-chloro-N-(4-(2-(4-chlorophenoxy)acetamido)cyclohexyl)-3,4-dihydro-2H-benzo[b][1,4]oxazine-3-carboxamide], in assay [1], the half-inhibitory concentration (IC50) is > 1000 nM. Moreover, in assay [2], the activity at 1 µM worked out at 137% and the “% Recovery of protein synthesis” value is 105.2%.

The compound `CN1CC(C(=O)N[C@H]2CC[C@H](NC(=O)COc3ccc(Cl)cc3)CC2)Oc2ccc(Cl)cc21` (stereo partly drawn) [Compound 83, trans-6-chloro-N-(4-(2-(4-chlorophenoxy)acetamido)cyclohexyl)-4-methyl-3,4-dihydro-2H-benzo[b][1,4]oxazine-2-carboxamide] came in with an IC50 in assay [1] of 19.3 nM. Besides, in assay [2], the activity at 1 µM turned out to be 148% and the “% Recovery of protein synthesis” value was found to be 98.4%.

The compound `O=C(Cc1ccc(Cl)cc1)NC[C@H]1CC[C@H](NC(=O)COc2ccc(Cl)cc2)CC1` [Compound 84, trans-2-(4-chlorophenoxy)-N-(4-((2-(4-chlorophenyl)acetamido)methyl)cyclohexyl)acetamide] came in with an IC50 in assay [1] of 18.3 nM. For the same compound, in assay [2], the activity at 1 µM was found to be 135% and the “% Recovery of protein synthesis” value stood at 35.0%.
